From US20110105326A1, “Method for Enhancing the Rainfastness of Glyphosate” (BASF SE, priority 2008, published 2011)

Legend:
Format in all cases: in vivo
[1] = system: Echinochloa colonum (ECHCO); assay: herbicidal action with/without simulated rainfall after treatment, Echinochloa colonum; settings: 1500 g/ha diuron, 1080 g/ha glyphosate; for herbicidal action against Echinochloa colonum (ECHCO): control without simulated rainfall, Example 15.1
Protocol: (§1) The enhancement of the rainfastness of glyphosate was determined via the herbicidal activity of the mixture comprising glyphosate and the respective rainfastness enhancing herbicidal component B as well as of the single herbicidal components in relation to simulated rainfall at different time intervals.
(§2) The evaluation of the damage caused by the method and the compositions the according to the present invention and the single herbicidal components was carried out using a scale from 0 to 100%, compared to the untreated control plots. Here, 0 means no damage and 100 means complete destruction of the plants of a respective weed or crop species.
(§3) The application was performed with a fixed spayer system with air pressurization and with a tank spray volume of two liters. The speed of the spray device over the plants was adjusted for a spray volume of 200 I/ha. The spray device was a spray barr with four nozzles from the type Teejet XR 11002VS with a space of 50 cm between each nozzle.
(§4) The application was performed at a weed stage of 6 to 8 leaves. After the application of the formulated herbicides the leaves were washed through rain of 20 mm using a fixed rain simulator system at following time interval: 15 min, 30 min, 1, 2, 3, 4 and 6 hours after treatment.

[2] = system: Ipomoea grandifolia (IPOGR); assay: herbicidal action with/without simulated rainfall after treatment, Ipomoea grandifolia; settings: 1500 g/ha diuron, 1080 g/ha glyphosate; for herbicidal action against Ipomoea grandifolia (IPOGR): control without simulated rainfall, Example 16.1
Protocol: as §1, §2, §3, §4

[3] = system: Brachiaria decumbens (BRADE); assay: herbicidal action with/without simulated rainfall after treatment, Brachiaria decumbens; settings: 1500 g/ha diuron, 1080 g/ha glyphosate; for herbicidal action against Brachiaria decumbens (BRADE): control without simulated rainfall, Example 17.1
Protocol: as §1, §2, §3, §4

CN(C)C(=O)Nc1ccc(Cl)c(Cl)c1 [Diuron, diuron] was tested, and the “herbicidal action against Echinochloa colonum (ECHCO)” value (shortened to “herbicidal action … (ECHCO)”) ([1]; 1 DAA) was 0, the “herbicidal action … (ECHCO)” value ([1]; 2 DAA) was 0 and the “herbicidal action … (ECHCO)” value ([1]; 3 DAA) was 2.66. The “herbicidal action … (ECHCO)” value ([1]; 7 DAA) was 61, the “herbicidal action against ECHCO” value ([1]; simulated rainfall 30 min after treatment, 1 DAA, Example 15.2) was 0 and the “herbicidal action against ECHCO” value ([1]; simulated rainfall 30 min after treatment, 2 DAA, Example 15.2) was 0. For the same compound, the “herbicidal action against ECHCO” value ([1]; simulated rainfall 30 min after treatment, 3 DAA, Example 15.2) was 6, the “herbicidal action against ECHCO” value ([1]; simulated rainfall 30 min after treatment, 7 DAA, Example 15.2) was 75.33 and the “herbicidal action against ECHCO” value ([1]; simulated rainfall 2 hours after treatment, 1 DAA, Example 15.3) was 0. The “herbicidal action against ECHCO” value ([1]; simulated rainfall 2 hours after treatment, 2 DAA, Example 15.3) was 0, the “herbicidal action against ECHCO” value ([1]; simulated rainfall 2 hours after treatment, 3 DAA, Example 15.3) was 1.66 and the “herbicidal action against ECHCO” value ([1]; simulated rainfall 2 hours after treatment, 7 DAA, Example 15.3) was 58.33. For the same compound, the “herbicidal action against Ipomoea grandifolia (IPOGR)” value (from here on “herbicidal action … (IPOGR)”) ([2]; 1 DAA) was 0, the “herbicidal action … (IPOGR)” value ([2]; 2 DAA) was 0 and the “herbicidal action … (IPOGR)” value ([2]; 3 DAA) was 1.33. The “herbicidal action … (IPOGR)” value ([2]; 7 DAA) was 7.33, the “herbicidal action against IPOGR” value ([2]; simulated rainfall 15 min after treatment, 1 DAA, Example 16.2) was 0 and the “herbicidal action against IPOGR” value ([2]; simulated rainfall 15 min after treatment, 2 DAA, Example 16.2) was 1. The “herbicidal action against IPOGR” value ([2]; simulated rainfall 15 min after treatment, 3 DAA, Example 16.2) was 3.33, the “herbicidal action against IPOGR” value ([2]; simulated rainfall 15 min after treatment, 7 DAA, Example 16.2) was 21 and the “herbicidal action against IPOGR” value ([2]; simulated rainfall 30 min after treatment, 1 DAA, Example 16.3) was 0. For the same compound, the “herbicidal action against IPOGR” value ([2]; simulated rainfall 30 min after treatment, 2 DAA, Example 16.3) was 0, the “herbicidal action against IPOGR” value ([2]; simulated rainfall 30 min after treatment, 3 DAA, Example 16.3) was 3 and the “herbicidal action against IPOGR” value ([2]; simulated rainfall 30 min after treatment, 7 DAA, Example 16.3) was 16.66. For the same compound, the “herbicidal action against IPOGR” value ([2]; simulated rainfall 2 hours after treatment, 1 DAA, Example 16.4) was 0, the “herbicidal action against IPOGR” value ([2]; simulated rainfall 2 hours after treatment, 2 DAA, Example 16.4) was 0 and the “herbicidal action against IPOGR” value ([2]; simulated rainfall 2 hours after treatment, 3 DAA, Example 16.4) was 0.33. The “herbicidal action against IPOGR” value ([2]; simulated rainfall 2 hours after treatment, 7 DAA, Example 16.4) was 11.66, the “herbicidal action against IPOGR” value ([2]; simulated rainfall 6 hours after treatment, 1 DAA, Example 16.5) was 0 and the “herbicidal action against IPOGR” value ([2]; simulated rainfall 6 hours after treatment, 2 DAA, Example 16.5) was 1. For the same compound, the “herbicidal action against IPOGR” value ([2]; simulated rainfall 6 hours after treatment, 3 DAA, Example 16.5) was 2, the “herbicidal action against IPOGR” value ([2]; simulated rainfall 6 hours after treatment, 7 DAA, Example 16.5) was 25.55 and the “herbicidal action against Brachiaria decumbens (BRADE)” value (“herbicidal action … (BRADE)” for short) ([3]; 1 DAA) was 0. The “herbicidal action … (BRADE)” value ([3]; 2 DAA) was 0, the “herbicidal action … (BRADE)” value ([3]; 3 DAA) was 0 and the “herbicidal action … (BRADE)” value ([3]; 7 DAA) was 11. For the same compound, the “herbicidal action … (BRADE)” value ([3]; 14 DAA) was 78.33, the “herbicidal action against BRADE” value ([3]; simulated rainfall 2 hours after treatment, 1 DAA, Example 17.2) was 0 and the “herbicidal action against BRADE” value ([3]; simulated rainfall 2 hours after treatment, 2 DAA, Example 17.2) was 0. The “herbicidal action against BRADE” value ([3]; simulated rainfall 2 hours after treatment, 3 DAA, Example 17.2) was 0, the “herbicidal action against BRADE” value ([3]; simulated rainfall 2 hours after treatment, 7 DAA, Example 17.2) was 56 and the “herbicidal action against BRADE” value ([3]; simulated rainfall 2 hours after treatment, 14 DAA, Example 17.2) was 100. The “herbicidal action against BRADE” value ([3]; simulated rainfall 6 hours after treatment, 1 DAA, Example 17.3) was 0, the “herbicidal action against BRADE” value ([3]; simulated rainfall 6 hours after treatment, 2 DAA, Example 17.3) was 0 and the “herbicidal action against BRADE” value ([3]; simulated rainfall 6 hours after treatment, 3 DAA, Example 17.3) was 0. The “herbicidal action against BRADE” value ([3]; simulated rainfall 6 hours after treatment, 7 DAA, Example 17.3) was 30 and the “herbicidal action against BRADE” value ([3]; simulated rainfall 6 hours after treatment, 14 DAA, Example 17.3) was 100.
